Patent US8455440B2, “Combination anticoagulant therapy with a compound that acts as a factor Xa inhibitor” (Millennium Pharmaceuticals, Inc., priority 2007, dated 2013)
Values joined by “and” are separate entries in the source; they are usually repeats but may differ in a detail not shown here. Identical values can stand only once. Marks after values point to notes of the source that are not given here.

Legend:
[1] = system: ADP induced platelet aggregation; assay: Ex vivo platelet aggregation induced by 10 μM ADP; type: in vivo; settings: Rattus norvegicus, read-out: % inhibition of platelet aggregation
Experimental: In this experiment, the ability of Compound A to maintain vessel patency under arterial flow conditions in ferric chloride induced thrombosis in rat carotid artery is compared to that achieved by clopidogrel. Compound A was administered by intravenous infusions and clopidogrel was dosed orally for three days. Ex vivo platelet aggregation induced by 10 μM ADP and clotting times (prothrombin time, PT and activated partial thromboplastin times, aPTT) were measured over the experimental time course (90 min) in all animals.
This level of platelet inhibition is approximately equivalent to that attained by clopidogrel's effect on human platelets at the therapeutic dose in clinical use (75 mg per day). […] Time to occlusion was measured in animals that had vessel occlusion.

thrombin generation = assay: Thrombin generation assay in platelet rich plasma (PRP); type: biochemical, human
Experimental: PRP and PPP were prepared by spinning the anticoagulated blood at ˜100×g or 1000×g for 20 minutes, respectively, at room temperature. Platelet counts in PRP were adjusted with homologous PPP to about 200,000 platelets/μL. For thrombin generation in 100 μL reaction mixture, 75 μL PRP was first mixed with CaCl2, convulxin, and Z-Gly-Gly-Arg-aminomethylcoumarin (Z-GGR-AMC, a thrombin fluorogenic substrate) for 3 minutes at 37° C., followed by adding tissue factor (Innovin, Dade Behring) to initiate the generation of thrombin. A typical reaction mixture contained 15 mM Ca^2+, 0.1 μg/mL convulxin, 100 μM Z-GGR-AMC, and 0.1 nM TF (tissue factor) (Innovin). Thrombin formation was monitored continuously at 37° C. by a fluorometric plate reader (Molecular Devices) measuring the relative fluorescence units (RFU). Inhibitors were pre-incubated with plasma for 20 minutes at room temperature before adding CaCl2 and convulxin.
Non-ASA represents result from donors free of aspirin. ASA represents results from donors taken aspirin for at least three days. % Inhibition was calculated by normalization of mean RFU (n=5) to Non-ASA at 0 nM Compound A.

cytokine release = assay: Ex vivo assay of human cytokine release in collagen activated whole blood; type: cell-based; settings: Compound A single treatment (50 to 500 nM), blood of healthy untreated donors, collagen 4 μg/mL
Experimental: An ex vivo assay system of human cytokine release was used to test whether inhibition of factor Xa should augment the effect of reduction of inflammation elicited by standard anti-inflammatory drugs, such as aspirin.
Following addition of Compound A (50 to 500 nM) to the blood samples, control and treated samples were activated by addition of collagen (Chronolog, 4 μg/mL) and gently rotated at 37° C. for 45 min. At the end of the activation period, blood samples were centrifuged at 13,000 rpm (15,000 g) for 5 min in an Eppendorf 5415G centrifuge. Plasma was removed, treated with protease inhibitor cocktail (Roche) and stored frozen at −80° C. Cytokines released from the blood cells were quantitated in a Multiplexed Biomarker Immunoassay for Luminex Instrumentation (Millipore USA). […] For example, in the plasma samples from six donors, the mean amount of interleukin 4 was 28.4 pg/mL in the untreated control and 26.8 to 29.4 pg/mL in the Compound A treated samples. […] Thus in this ex vivo system Compound A was capable of providing additional beneficial effect over a widely used anti-inflammatory agent.

[2] = system: venous thromboembolism (VTE); assay: Prospective randomized trial for prevention of venous thromboembolic events after total knee replacement; settings: for VTE %: 10-14 days
Excerpt: Safety endpoints included the incidence of major and clinically significant nonmajor bleeds through the day after venography. All efficacy and bleeding endpoints were adjudicated by a blinded, independent central adjudication committee.

human whole blood = assay: Real time perfusion chamber: whole blood perfused over collagen and tissue factor coated surface; type: cell-based; settings: shear rate 300 s^−1, five donors
Experimental: After the perfusion, the thrombotic activity was quantified by measurement of labeled fibrin produced as a result of fibrinogen cleavage during the activation of platelets and the blood coagulation system. For this series of experiments in five healthy human volunteers, blood was obtained by venipuncture and treated with 2.4 μM eptifibatide. The dose of eptifibatide corresponds to the plasma concentration attained by therapeutic concentrations of the GPIIb/IIIa inhibitor.

[3] = system: ferric chloride induced thrombosis in rat carotid artery; assay: Ferric chloride induced thrombosis in rat carotid artery; type: in vivo; settings: for % Did not occlude (inhibition of rat thrombosis) / Number of animals without occlusion: intravenous infusion; for Number of animals without occlusion: 10 animals; for time to occlusion: animals that had vessel occlusion
Rhesus Monkeys = assay: Template bleed times in rhesus monkeys; type: in vivo, rhesus monkey; settings: for Template Bleed Times / Template Bleed Times, Mean of all times / Template Bleed Times, Mean per animal / Template Bleed Times, Mean for time points 1-24 hr (post-Compound A dosing): in min (unit assumed); for Template Bleed Times, Mean of animals: mean of two animals; for Template Bleed Times, Mean of all times: all times (0-24 hr)
Excerpt: Injectable heparins are often dose limited by their bleeding consequences which result in a narrow therapeutic window for treatment effects.

SMILES: COc1ccc(NC(=O)c2ccc(C(=N)N(C)C)cc2)c(C(=O)Nc2ccc(Cl)cn2)c1 [Compound A, [2-({4-[(dimethylamino)iminomethyl]phenyl}carbonylamino)-5-methoxyphenyl]-N-(5-chloro(2-pyridyl))carboxamide]
- inhibition at 0.03 µM [1]: -2%
- inhibition at 0.1 µM [1]: 4%
- inhibition at 0.3 µM [1]: 0.8%
- % Inhibition of thrombin generation (thrombin generation; ASA donors, 7.8125 nM Compound A, normalized to Non-ASA at 0 nM): 24.6%
- % Inhibition of thrombin generation (thrombin generation; ASA donors, 15.625 nM Compound A, normalized to Non-ASA at 0 nM): 26.9%
- % Inhibition of thrombin generation (thrombin generation; ASA donors, 31.25 nM Compound A, normalized to Non-ASA at 0 nM): 33.4%
- % Inhibition of thrombin generation (thrombin generation; ASA donors, 62.5 nM Compound A, normalized to Non-ASA at 0 nM): 46.0%
- % Inhibition of thrombin generation (thrombin generation; ASA donors, 125 nM Compound A, normalized to Non-ASA at 0 nM): 64.7%
- % Inhibition of thrombin generation (thrombin generation; ASA donors, 250 nM Compound A, normalized to Non-ASA at 0 nM): 82.5%
- % Inhibition of thrombin generation (thrombin generation; ASA donors, 500 nM Compound A, normalized to Non-ASA at 0 nM): 94.6%
- % Inhibition of thrombin generation (thrombin generation; Non-ASA donors, 7.8125 nM Compound A): 3.2%
- % Inhibition of thrombin generation (thrombin generation; Non-ASA donors, 15.625 nM Compound A): 5.1%
- % Inhibition of thrombin generation (thrombin generation; Non-ASA donors, 31.25 nM Compound A): 12.2%
- % Inhibition of thrombin generation (thrombin generation; Non-ASA donors, 62.5 nM Compound A): 25.2%
- % Inhibition of thrombin generation (thrombin generation; Non-ASA donors, 125 nM Compound A): 55.1%
- % Inhibition of thrombin generation (thrombin generation; Non-ASA donors, 250 nM Compound A): 81.1%
- % Inhibition of thrombin generation (thrombin generation; Non-ASA donors, 500 nM Compound A): 96.0%
- inhibition of cytokine release (cytokine release): did not produce statistically significant inhibition of cytokine release
- Clinical significant nonmajor bleeds % ([2]; Compound A 15 mg bid): 0%
- Major Bleeds % ([2]; Compound A 15 mg bid): 0%
- VTE % ([2]; Compound A 15 mg bid oral, n = 69): 20%
- Clinical significant nonmajor bleeds % ([2]; Compound A 40 mg bid): 2.4%
- Major Bleeds % ([2]; Compound A 40 mg bid): 0%
- VTE % ([2]; Compound A 40 mg bid oral, n = 65): 15%
- Mean Fluorescence (human whole blood; 10 nM Compound A + 2.4 μM eptifibatide): 107.7
- Mean Fluorescence (human whole blood; 25 nM Compound A + 2.4 μM eptifibatide): 85.0
- Mean Fluorescence (human whole blood; 50 nM Compound A + 2.4 μM eptifibatide): 64.5
- Mean Fluorescence (human whole blood; 75 nM Compound A + 2.4 μM eptifibatide): 34.7
- Mean Fluorescence (human whole blood; 100 nM Compound A + 2.4 μM eptifibatide): 33.0
- % Did not occlude (inhibition of rat thrombosis) ([3]; 0.03 μM Compound A): 30%
- Number of animals without occlusion ([3]; 0.03 μM Compound A): 3
- time to occlusion ([3]; 0.03 μM Compound A): 27.07
- % Did not occlude (inhibition of rat thrombosis) ([3]; 0.1 μM Compound A): 60%
- Number of animals without occlusion ([3]; 0.1 μM Compound A): 6
- time to occlusion ([3]; 0.1 μM Compound A): 52.66
- % Did not occlude (inhibition of rat thrombosis) ([3]; 0.3 μM Compound A): 90%
- Number of animals without occlusion ([3]; 0.3 μM Compound A): 9
- time to occlusion ([3]; 0.3 μM Compound A): 35.78
- % DNO (inhibition of rat thrombosis) ([3]; Compound A 0.03 μM iv infusion, aspirin 3 mg/kg iv bolus, or both): 30%
- TTO (Time to occlusion) ([3]; average for animals that occluded, Compound A 0.03 μM, aspirin 3 mg/kg, or both): 27.07 ± 7.36 min
- DNO (did not occlude) ([3]; number of 10 animals, Compound A 0.03 μM iv infusion, aspirin 3 mg/kg iv bolus, or both): 3
- Template Bleed Times (Rhesus Monkeys; 4.0 mg/kg, 1 hr, individual animals (Rhesus # 30675, 30973)): 1.50 and 3.75
- Template Bleed Times, Mean of animals (Rhesus Monkeys; 4.0 mg/kg, 1 hr): 2.63 min
- Template Bleed Times (Rhesus Monkeys; 4.0 mg/kg, 2 hr, individual animals (Rhesus # 30675, 30973)): 1.50
- Template Bleed Times, Mean of animals (Rhesus Monkeys; 4.0 mg/kg, 2 hr): 1.5 min
- Template Bleed Times (Rhesus Monkeys; 4.0 mg/kg, 3 hr, individual animals (Rhesus # 30675, 30973)): 1.50
- Template Bleed Times, Mean of animals (Rhesus Monkeys; 4.0 mg/kg, 3 hr): 1.5 min
- Template Bleed Times (Rhesus Monkeys; 4.0 mg/kg, 8 hr, individual animals (Rhesus # 30675, 30973)): 2.00
- Template Bleed Times, Mean of animals (Rhesus Monkeys; 4.0 mg/kg, 8 hr): 2 min
- Template Bleed Times (Rhesus Monkeys; 4.0 mg/kg, 24 hr, individual animals (Rhesus # 30675, 30973)): 2.50
- Template Bleed Times, Mean of animals (Rhesus Monkeys; 4.0 mg/kg, 24 hr): 2.5 min
- Template Bleed Times, Mean of all times (Rhesus Monkeys; 4.0 mg/kg): 1.98*
- Template Bleed Times, Mean per animal (Rhesus Monkeys; 4.0 mg/kg, mean over time points of each animal (Rhesus # 30675, 30973)): 1.80 and 2.25
- Template Bleed Times, Mean for time points 1-24 hr (post-Compound A dosing) (Rhesus Monkeys; 4.0 mg/kg): 2.03**
- Template Bleed Times (Rhesus Monkeys; 7.5 mg/kg, 1 hr, individual animals (Rhesus # 25285, 27678)): 3.00 and 2.00
- Template Bleed Times, Mean of animals (Rhesus Monkeys; 7.5 mg/kg, 1 hr): 2.5 min
- Template Bleed Times (Rhesus Monkeys; 7.5 mg/kg, 2 hr, individual animals (Rhesus # 25285, 27678)): 2.50 and 1.75
- Template Bleed Times, Mean of animals (Rhesus Monkeys; 7.5 mg/kg, 2 hr): 2.13 min
- Template Bleed Times (Rhesus Monkeys; 7.5 mg/kg, 3 hr, individual animals (Rhesus # 25285, 27678)): 2.50 and 2.00
- Template Bleed Times, Mean of animals (Rhesus Monkeys; 7.5 mg/kg, 3 hr): 2.25 min
- Template Bleed Times (Rhesus Monkeys; 7.5 mg/kg, 8 hr, individual animals (Rhesus # 25285, 27678)): 4.00 and 2.50
- Template Bleed Times, Mean of animals (Rhesus Monkeys; 7.5 mg/kg, 8 hr): 3.25 min
- Template Bleed Times (Rhesus Monkeys; 7.5 mg/kg, 24 hr, individual animals (Rhesus # 25285, 27678)): 2.50
- Template Bleed Times, Mean of animals (Rhesus Monkeys; 7.5 mg/kg, 24 hr): 2.5 min
- Template Bleed Times, Mean of all times (Rhesus Monkeys; 7.5 mg/kg): 2.50*
- Template Bleed Times, Mean per animal (Rhesus Monkeys; 7.5 mg/kg, mean over time points of each animal (Rhesus # 25285, 27678)): 2.90 and 2.15
- Template Bleed Times, Mean for time points 1-24 hr (post-Compound A dosing) (Rhesus Monkeys; 7.5 mg/kg): 2.53**
- bleeding times (Rhesus Monkeys; supra-therapeutic doses (7 to 35 times greater than the 0.21 mg/kg to 0.57 mg/kg human therapeutic doses)): did not extend of bleeding times
- bleeding time in monkeys (Rhesus Monkeys; therapeutic levels, plasma concentrations between 5 to 25 ng/mL): did not cause extension of bleeding
